# Laboratory results taken from PubChem BioAssay AID2060486 (Molecular Pharmacology Branch, DTP, NCI, 2025).
# Tested on: IGROV1 complex spheroids (HUVEC, MSC), viability % test/control
# Assay: Anticancer human tumor IGROV1 cell line growth inhibition [GQUAD];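 further: spheroids exposed to compounds for 7 days before readout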;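 on viability, T/C: 100% = DMSO vehicle control viability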
# Settings: for IC50: curve of first compound; for viability, T/C: stronger effect = lower value
# Procedure, shortened: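 Multi-cell-type spheroids of tumor cells with HUVEC and mesenchymal stem cells, treated with drug combinations. Concentrations descend in half-log steps from near clinical Cmax, or from 10 microM where Cmax is unknown; viability read-out.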
# [1] = second compound 0.0316 µM, first compound 0.0316 µM
# [2] = second compound 0.0316 µM, first compound 0.1 µM
# [3] = second compound 0.0316 µM, first compound 0.316 µM
# [4] = second compound 0.0316 µM, first compound 1 µM
# [5] = second compound 0.0316 µM, first compound 3.16 µM
# [6] = second compound 0.0316 µM, first compound 10 µM
# [7] = second compound 0.1 µM, first compound 0.0316 µM
# [8] = second compound 0.1 µM, first compound 0.1 µM
# [9] = second compound 0.1 µM, first compound 0.316 µM
# [10] = second compound 0.1 µM, first compound 1 µM
# [11] = second compound 0.1 µM, first compound 3.16 µM
# [12] = second compound 0.1 µM, first compound 10 µM
# [13] = second compound 0.316 µM, first compound 0.0316 µM
# [14] = second compound 0.316 µM, first compound 0.1 µM
# [15] = second compound 0.316 µM, first compound 0.316 µM
# [16] = second compound 0.316 µM, first compound 1 µM
# [17] = second compound 0.316 µM, first compound 3.16 µM
# [18] = second compound 0.316 µM, first compound 10 µM
# [19] = second compound 1 µM, first compound 0.0316 µM
# [20] = second compound 1 µM, first compound 0.1 µM
# [21] = second compound 1 µM, first compound 0.316 µM
# [22] = second compound 1 µM, first compound 1 µM
# [23] = second compound 1 µM, first compound 3.16 µM
# [24] = second compound 1 µM, first compound 10 µM
# [25] = second compound 3.16 µM, first compound 0.0316 µM
# [26] = second compound 3.16 µM, first compound 0.1 µM
# [27] = second compound 3.16 µM, first compound 0.316 µM
# [28] = second compound 3.16 µM, first compound 1 µM
# [29] = second compound 3.16 µM, first compound 3.16 µM
# [30] = second compound 3.16 µM, first compound 10 µM
# [31] = second compound 10 µM, first compound 0.0316 µM
# [32] = second compound 10 µM, first compound 0.1 µM
# [33] = second compound 10 µM, first compound 0.316 µM
# [34] = second compound 10 µM, first compound 1 µM
# [35] = second compound 10 µM, first compound 3.16 µM
# [36] = second compound 10 µM, first compound 10 µM
structure (smiles),measurement,setting,value
C=CCn1c(=O)c2cnc(Nc3ccc(N4CCN(C)CC4)cc3)nc2n1-c1cccc(C(C)(C)O)n1 + Cc1[nH]c2ccc(F)cc2c1-c1nc2c3cccnc3c3ncccc3c2[nH]1,IC50,second compound 0.0316 µM,141 nM
same,IC50,second compound 0.1 µM,155 nM
same,IC50,second compound 0.316 µM,< 31.6 nM
same,IC50,second compound 1 µM,< 31.6 nM
same,IC50,second compound 3.16 µM,< 31.6 nM
same,IC50,second compound 10 µM,< 31.6 nM
same,"viability, T/C",[1],98.8%
same,"viability, T/C",[2],66.5%
same,"viability, T/C",[3],10.9%
same,"viability, T/C",[4],3.13%
same,"viability, T/C",[5],2.59%
same,"viability, T/C",[6],2.44%
same,"viability, T/C",[7],98.9%
same,"viability, T/C",[8],72.9%
same,"viability, T/C",[9],12.7%
same,"viability, T/C",[10],2.29%
same,"viability, T/C",[11],3.17%
same,"viability, T/C",[12],2.44%
same,"viability, T/C",[13],40.6%
same,"viability, T/C",[14],19.9%
same,"viability, T/C",[15],2.19%
same,"viability, T/C",[16],1.65%
same,"viability, T/C",[17],2.64%
same,"viability, T/C",[18],1.76%
same,"viability, T/C",[19],3.28%
same,"viability, T/C",[20],3.17%
same,"viability, T/C",[21],2.16%
same,"viability, T/C",[22],2.04%
same,"viability, T/C",[23],2.4%
same,"viability, T/C",[24],1.76%
same,"viability, T/C",[25],3.09%
same,"viability, T/C",[26],2.89%
same,"viability, T/C",[27],2.25%
same,"viability, T/C",[28],1.95%
same,"viability, T/C",[29],2.45%
same,"viability, T/C",[30],1.48%
same,"viability, T/C",[31],3.85%
same,"viability, T/C",[32],2.84%
same,"viability, T/C",[33],2.5%
same,"viability, T/C",[34],2.14%
same,"viability, T/C",[35],2.23%
same,"viability, T/C",[36],1.57%
CC(C)n1c(=O)n(C)c2cnc3cc(F)c(-c4ccc(OCCCN5CCCCC5)nc4)cc3c21 + Cc1cnc(CNC(=O)c2c(=O)c3ccc(N4CCCN(C)CC4)nc3n3c2sc2ccccc23)cn1,IC50,second compound 0.0316 µM,< 31.6 nM
same,IC50,second compound 0.1 µM,< 31.6 nM
same,IC50,second compound 0.316 µM,< 31.6 nM
same,IC50,second compound 1 µM,< 31.6 nM
same,IC50,second compound 3.16 µM,< 31.6 nM
same,IC50,second compound 10 µM,< 31.6 nM
same,"viability, T/C",[1],13.7%
same,"viability, T/C",[2],11.3%
same,"viability, T/C",[3],10.6%
same,"viability, T/C",[4],11.4%
same,"viability, T/C",[5],10.2%
same,"viability, T/C",[6],11.2%
same,"viability, T/C",[7],12.4%
same,"viability, T/C",[8],12.1%
same,"viability, T/C",[9],12.4%
same,"viability, T/C",[10],10.7%
same,"viability, T/C",[11],11.3%
same,"viability, T/C",[12],7.45%
same,"viability, T/C",[13],15.1%
same,"viability, T/C",[14],11.4%
same,"viability, T/C",[15],11.7%
same,"viability, T/C",[16],11.4%
same,"viability, T/C",[17],9.7%
same,"viability, T/C",[18],8.1%
same,"viability, T/C",[19],13%
same,"viability, T/C",[20],12.8%
same,"viability, T/C",[21],9.09%
same,"viability, T/C",[22],9.18%
same,"viability, T/C",[23],9.72%
same,"viability, T/C",[24],7.74%
same,"viability, T/C",[25],8.77%
same,"viability, T/C",[26],9.43%
same,"viability, T/C",[27],9.15%
same,"viability, T/C",[28],11.1%
same,"viability, T/C",[29],10.6%
same,"viability, T/C",[30],6.66%
same,"viability, T/C",[31],12.3%
same,"viability, T/C",[32],7.9%
same,"viability, T/C",[33],9.45%
same,"viability, T/C",[34],9.57%
same,"viability, T/C",[35],8.82%
same,"viability, T/C",[36],9.01%
CC1COCCN1c1cc(-c2ccnn2C)c2ccnc(-c3ccn[nH]3)c2n1 (stereo unspecified) + Cc1cnc(CNC(=O)c2c(=O)c3ccc(N4CCCN(C)CC4)nc3n3c2sc2ccccc23)cn1,IC50,second compound 0.0316 µM,< 31.6 nM
same,IC50,second compound 0.1 µM,< 31.6 nM
same,IC50,second compound 0.316 µM,< 31.6 nM
same,IC50,second compound 1 µM,< 31.6 nM
same,IC50,second compound 3.16 µM,< 31.6 nM
same,IC50,second compound 10 µM,< 31.6 nM
same,"viability, T/C",[1],16.8%
same,"viability, T/C",[2],9.68%
same,"viability, T/C",[3],7.59%
same,"viability, T/C",[4],5.06%
same,"viability, T/C",[5],4.01%
same,"viability, T/C",[6],2.97%
same,"viability, T/C",[7],10.3%
same,"viability, T/C",[8],7.36%
same,"viability, T/C",[9],6.21%
same,"viability, T/C",[10],5.27%
same,"viability, T/C",[11],3.92%
same,"viability, T/C",[12],4.13%
same,"viability, T/C",[13],9%
same,"viability, T/C",[14],7.55%
same,"viability, T/C",[15],6.04%
same,"viability, T/C",[16],5.16%
same,"viability, T/C",[17],4.14%
same,"viability, T/C",[18],3.5%
same,"viability, T/C",[19],8.34%
same,"viability, T/C",[20],6.08%
same,"viability, T/C",[21],5.92%
same,"viability, T/C",[22],5.14%
same,"viability, T/C",[23],3.89%
same,"viability, T/C",[24],3%
same,"viability, T/C",[25],7.12%
same,"viability, T/C",[26],7.74%
same,"viability, T/C",[27],7.15%
same,"viability, T/C",[28],5.94%
same,"viability, T/C",[29],3.88%
same,"viability, T/C",[30],2.53%
same,"viability, T/C",[31],6.76%
same,"viability, T/C",[32],5.78%
same,"viability, T/C",[33],7.42%
same,"viability, T/C",[34],3.84%
same,"viability, T/C",[35],4.68%
same,"viability, T/C",[36],2.74%
